Earlier results, collected in patent US11672759B2 (priority 2017, dated 2023).

Conditions: estimated

Which effective dose does the source give for COc1cc2c(c(OC)c1OC)-c1ccc(OC)c(=O)cc1[C@@H](NC(C)=O)CC2 [colchicine, N-((7S)-5,6,7,9-tetrahydro-1,2,3,10-tetramethoxy-9-oxobenzo(a)heptalen-7-yl)-acetamide] here?
The effective dose was “approximately 0.015 mg/kg”.

What about the toxic dose of the same compound?
The toxic dose was “greater than 0.1 mg/kg”.

What about the typically lethal dose of the same compound?
The typically lethal dose was “approximately 0.8 mg/kg”.
